Measurements taken from ChEMBL document CHEMBL3621109, “Probing Mechanisms of CYP3A Time-Dependent Inhibition Using a Truncated Model System” (ACS Med Chem Lett, 2015).

Legend:
[1] = Inhibition of CYP3A (unknown origin) using testosterone as substrate; assay type: ADME, Homo sapiens
[2] = Inhibition of CYP3A (unknown origin) using midazolam as substrate; assay type: ADME, Homo sapiens

Cn1ncc(NC(=O)c2ccccc2)c1N1CCCCC(F)(F)C1
IC50 [1]: 1.7 µM
IC50 [2]: 0.84 µM

Cn1ncc(NC(=O)c2ccccc2)c1N1CCC(O)CC(F)(F)C1 (racemic)
IC50 [2]: > 10 µM

Cn1ncc(NC(=O)c2ccccc2)c1N1CC[C@H](N)CC(F)(F)C1
IC50 [1]: 4.3 µM
IC50 [2]: 5 µM

Cn1ncc(NC(=O)OCc2ccccc2)c1N1CC[C@H](N)CC(F)(F)C1
IC50 [1]: 2.5 µM
IC50 [2]: 7.7 µM
